Format in all cases: cell-based
One assay addresses T1, m3 receptor (Homo sapiens, UniProt P20309).
T1 construct: expressed in transfected cells; host or cells: NIH 3T3 (ATCC CRL 1658)
The experiment in a line: R-SAT / NIH 3T3 cells transfected with m3 muscarinic receptor. An excerpt: (§1) A particularly convenient functional assay system is the receptor selection and amplification assay disclosed in U.S. Pat. No. 5,707,798 describing a method of screening for bioactive compounds by utilizing the ability of cells transfected with receptor DNA, e.g. coding for the different muscarinic subtypes, to amplify in the presence of a ligand of the receptor. Cell amplification is detected as increased levels of a marker also expressed by the cells.
(§2) Transfection of cells with muscarinic receptor DNAs (general procedure) NIH 3T3 cells (available from the American Type Culture Collection as ATCC CRL 1658) were grown at 37° C. in a humidified atmosphere (5% CO2) incubator in Dulbecco's modified Eagle's medium (DMEM) supplemented with 4.5 g/l glucose, 4 mM glutamine, 50 units/m1 penicillin, 50 units/m1 streptomycin (available from Advanced Biotechnologies, Inc., Gaithersburg, Md.) and 10% calf serum (available from Sigma, St. Louis, […].). The cells were treated with trypsin-EDTA, spun down and plated at 2×10^6 per 15 cm dish in 20 m1 of DMEM containing 10% calf serum.
(§3) The m1-m5 muscarinic receptor subtypes were cloned substantially as described by Bonner et al., Science 237, 1987, p. 527, and Bonner et al., Neuron 1, 1988, p. 403. For the m2 and m4 receptors, the cells were co-transfected with DNA encoding a chimera between the Gq protein and the five carboxy-terminal amino acids of the Gi protein (the Gq-i5 construct is described by Conklin et al., Nature 363, 1993, p.274).
(§4) On day one, the cells were transfected using the Superfect transfection reagent (available from Qiagen, Valencia, Calif.) in accordance with the manufacturer's instructions. Receptor DNA, β-gal DNA (pSI-β-galactosidase available from Promega, Madison, Wis.), chimeric Gq-i5 DNA for the m2 and m4 receptor subtype assays, and salmon sperm DNA (available from Sigma, St. Louis, […].) as filler to a total of 20 μg DNA was added per plate. Prior to addition to the plates, 60 μl Superfect was added to the DNA and mixed thoroughly by pipetting up and down several times. The mixture was incubated at room temperature for 10-15 minutes. The media were aspirated, and 12 ml fresh DMEM containing 10% calf serum and 50 units/m1 penicillin/streptomycin was added to the plates. The DNA-Superfect solution was mixed once more with a pipette and added to the plate which was swirled to distribute the DNA mixture evenly over the surface. The cells were incubated overnight at 37° C. and 5% CO2. After incubation, the media were aspirated and the plates were rinsed once with a 15 m1 volume of Hank's Buffered Saline. The plates were swirled to ensure thorough rinsing. 20 m1 fresh DMEM supplemented with 10% calf serum and 50 units/m1 penicillin/streptomycin was added to the plates. The cells were incubated for 24-48 hours until the plates were 100% confluent.
(§5) Assay of NIH 3T3 cells transfected with muscarinic receptor subtypes (general procedure) DMEM containing 2% Cyto-SF3 was heated at 37° C. in a water bath under sterile conditions. Sterile working stock solutions of test compounds to be assayed were prepared by diluting the compounds in DMEM to 8× the final concentration for testing. The compound (carbachol) to be included in the assay as a positive control was also diluted in DMEM to 8× the final concentration. 50 μL of the DMEM containing 2% Cyto-SF3 was added to each well of 96-well microtiter plates under sterile conditions. Then, 16 of compound solutions were added to the top wells of the plates, and dilution of the solutions was performed by taking 16 μl of the compound solutions from the top wells and pipetting them into the next row of wells. This procedure was repeated with each subsequent row of wells, except that 50 μl medium alone was added to the baseline control wells (the wells that contain medium and cells, but not test compounds) and plate control wells (wells containing medium, but not test compounds and cells). […]

In another assay the target is T2, m5 receptor (Homo sapiens, UniProt P08912).
T2 construct: expressed in transfected cells; host or cells: NIH 3T3 (ATCC CRL 1658)
T2 sequence (P08912 1-532): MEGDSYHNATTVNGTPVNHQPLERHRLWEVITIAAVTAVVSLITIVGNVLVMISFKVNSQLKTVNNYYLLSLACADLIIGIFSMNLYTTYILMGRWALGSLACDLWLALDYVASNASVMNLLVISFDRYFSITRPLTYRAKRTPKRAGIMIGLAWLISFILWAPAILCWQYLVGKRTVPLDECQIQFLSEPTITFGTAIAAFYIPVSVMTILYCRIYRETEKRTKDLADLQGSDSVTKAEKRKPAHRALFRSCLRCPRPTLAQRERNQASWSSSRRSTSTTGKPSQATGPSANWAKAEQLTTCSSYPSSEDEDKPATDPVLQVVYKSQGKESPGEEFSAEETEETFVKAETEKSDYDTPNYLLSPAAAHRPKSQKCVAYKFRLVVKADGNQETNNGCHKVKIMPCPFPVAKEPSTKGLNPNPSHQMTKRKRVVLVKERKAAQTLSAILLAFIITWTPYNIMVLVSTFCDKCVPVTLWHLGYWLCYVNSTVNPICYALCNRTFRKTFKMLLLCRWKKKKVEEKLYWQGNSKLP
The assay can be described thus: R-SAT / NIH 3T3 cells transfected with m5 muscarinic receptor.
From the text: as §1, §2, §3, §4, §5

A further assay addresses T3, serotonin 5-HT1A (Homo sapiens, UniProt P08908).
T3 sequence (P08908 1-422): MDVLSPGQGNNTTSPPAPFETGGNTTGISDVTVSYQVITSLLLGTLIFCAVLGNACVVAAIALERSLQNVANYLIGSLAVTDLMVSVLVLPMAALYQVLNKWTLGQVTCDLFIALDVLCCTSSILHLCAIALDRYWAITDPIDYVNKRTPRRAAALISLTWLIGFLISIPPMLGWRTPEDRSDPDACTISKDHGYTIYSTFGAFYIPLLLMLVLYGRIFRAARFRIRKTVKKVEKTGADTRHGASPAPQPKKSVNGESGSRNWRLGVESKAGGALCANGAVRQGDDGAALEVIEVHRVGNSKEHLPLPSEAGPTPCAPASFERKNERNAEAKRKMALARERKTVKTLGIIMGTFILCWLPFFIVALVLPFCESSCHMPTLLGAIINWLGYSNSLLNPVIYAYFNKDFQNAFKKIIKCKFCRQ
The experiment in a line: Test against other receptors: serotonin 5-HT1A.

T1 sequence (P20309 whole entry): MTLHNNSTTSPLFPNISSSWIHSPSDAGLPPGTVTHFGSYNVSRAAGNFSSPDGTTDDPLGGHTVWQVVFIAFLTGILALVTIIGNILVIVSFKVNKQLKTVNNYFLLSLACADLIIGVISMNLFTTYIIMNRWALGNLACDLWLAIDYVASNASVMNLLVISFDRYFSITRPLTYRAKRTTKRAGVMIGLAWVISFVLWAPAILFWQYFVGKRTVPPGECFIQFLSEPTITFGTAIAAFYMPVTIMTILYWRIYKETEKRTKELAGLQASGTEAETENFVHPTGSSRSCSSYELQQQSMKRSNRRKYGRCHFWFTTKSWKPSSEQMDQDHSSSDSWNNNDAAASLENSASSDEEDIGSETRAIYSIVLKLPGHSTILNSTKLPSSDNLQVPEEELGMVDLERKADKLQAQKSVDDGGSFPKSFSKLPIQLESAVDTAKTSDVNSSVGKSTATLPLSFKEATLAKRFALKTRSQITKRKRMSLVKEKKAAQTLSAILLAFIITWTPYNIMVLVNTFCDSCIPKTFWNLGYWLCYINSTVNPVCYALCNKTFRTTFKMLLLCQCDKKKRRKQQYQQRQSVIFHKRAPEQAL

Turning to `CCCCC1CCN(CCCC(=O)c2ccccc2C)CC1` [Compound A, 4-n-Butyl-1-[4-(2-methylphenyl)-4-oxo-1-butyl]piperidine], the “agonist activity at the m3 receptor” value at m3 receptor was “only activated the m1 receptor subtype”. Moreover, the Emax at 1.5 µM at m3 receptor (NIH3T3, m3, compound at 1.5 μM, maximum = response to 10 μM carbachol, read-out: Cellular response as a percentage of the maximum response of the cells) worked out at 7%; on m5 receptor (NIH3T3, m5, compound at 1.5 μM, maximum = response to 10 μM carbachol, read-out: Cellular response as a percentage of the maximum response of the cells) it was 3%. The “antagonism of carbachol-induced responses” value on m3 receptor (m3) and at m5 receptor (m5) was “not an antagonist” each time. Besides, the “agonist activity at the m5 receptor” value on m5 receptor is recorded as “only activated the m1 receptor subtype”. On serotonin 5-HT1A, the agonist activity entry is given as “no significant activity”. The “inhibition of receptor responses (antagonist experiments)” value against serotonin 5-HT1A is recorded as “did not inhibit”.

The record behind these values is patent US7485651B2, “Compounds with activity on muscarinic receptors” (Acadia Pharmaceuticals, Inc., priority 1998, dated 2009).
